Source: patent publication US20260356879A1, “CELASTROL DERIVATIVES” (Celloram Inc., priority 2022, published 2026)
Entries after “also recorded” stand apart in the source; their conditions may differ. Read-outs that look alike come from different tables or passages of the source.

How the values were obtained:
[1] = test system: NLRP3 inflammasome; assay: NLRP3 inflammasome assay in BMDCs: ASC complex formation (western blot); format: cell-based
Procedure: FIG. 2A depicts western blot images showing the relative NLRP3 inflammasome activity of the compounds 22 (CLM-022) and 1 (CLM-001) by detecting the level of cellular ASC complex and the mature form of IL-1β (15 kDa) in a conditioned media of BMDCs treated with LPS (100 ng/ml) for 3 hours and then the compound at 50 nM, 100 nM, and 500 nM concentration for 30 min, followed by ATP or Nigericin. ASC monomer and β-Actin proteins were used as controls. FIG. 2B depict plots of results showing secreted IL-1β levels measured by ELISA using conditioned media of BMDC treated with the compound 22 or compound 1 at 63 nM, 125 nM, 250 nM, and 500 nM, under NLRP3 inflammasome activation induced either by LPS+ATP or LPS+Nigericin. FIG. 2C depict plots of results showing secreted TNF-α levels measured by ELISA using conditioned media of BMDC treated with the compound 22 or compound 1 at 63 nM, 125 nM, 250 nM, and 500 nM, under NLRP3 inflammasome activation induced either by LPS+ATP or LPS+Nigericin. […]
1. […] After 30 minutes Nigericin (10 μM) or ATP (5 mM) was added (Signal 2) and the level of NLRP3-dependent inflammasome activity was determined by western blotting the treated cells with ASC complex (>48 kDa). […]

[2] = test system: NLRP3 inflammasome; assay: ASC complex formation in THP-1 cells (western blot), LPS+Nigericin; format: cell-based, human; settings: THP-1, 50 nM and 100 nM, FIG. 3A
Procedure: This example illustrates a study of the anti-inflammatory potential of an exemplary celastrol derivative of the present disclosure (compound 22) using an NLRP3 inflammasome assay in THP-1, a human monocytic cell line, activated with LPS+Nigericin in the presence of compound 22 or the known NLRP3 inhibitor compound, MCC950 (CAS 256373-96-3), as a benchmark molecule.
Human THP-1 cells were treated with LPS+Nigericin as shown previously (FIG. 2) where increasing dose of compound 1, compound 22, or MCC950 were added as indicated.

[3] = test system: NF-kB target proteins iNOS, COX2, NLRP3, and IL-1β; assay: LPS-induced NF-kB target protein expression in BMDCs (western blot); format: cell-based; settings: BMDCs, 10, 25, 50 nM, LPS (500 ng/ml), FIG. 1C
Procedure: FIG. 1A depicts plots of relative NF-κB luciferase activity (RLU) for compound 22 and compound 1 (also referred to as “CLM-001”) assayed at 8-point concentrations (10 μM, 5 μM, […], 1.25 μM, 0.63 μM, 0.31 μM, 0.16 μM, […], and 0 μM). FIG. 1B depicts plots of the inhibitory concentrations (IC50) for compounds 22 (CLM-022) and 1 (CLM-001).
LPS-induced NF-kB target protein expression: Bone marrow-derived dendritic cells (BMDCs) were pre-treated with compound 22 or compound 1 at three concentrations (10 nM, 25 nM, 50 nM) for an hour and then treated overnight with LPS (500 ng/ml). The next day, the cells were subjected to western blotting for iNOS, COX2, NLRP3, and IL-1β.

[4] = test system: NLRP3 inflammasome; assay: IL-1β secretion in THP-1 macrophages, LPS + Nigericin; format: cell-based; settings: human THP-1 macrophages, FIG. 5C
Procedure: This example illustrates a comparative study of CLM-022 and MCC950 in inhibiting NLRP3 inflammasome activity in mouse and human macrophages.
To confirm the inhibitory effect of CLM-022 in human macrophages, THP-1 cells, a human leukemia monocytic cell line, were differentiated into macrophages using phorbol 12-myristate-13-acetate (PMA, 100 ng/ml) treatment for one day. The THP-1 macrophages were then treated with LPS (100 ng/ml) for 3 hours to induce the expression of inflammatory genes. Subsequently, the THP-1 cells were treated with CLM-022 or MCC950 in a dose range of 0-10 μM for 30 minutes. Then, to fully activate NLRP3-dependent inflammasome activity, Nigericin (10 μM) was added to the THP-1 cells for an additional 60 min.

[5] = test system: NF-kB; assay: NF-kB luciferase reporter assay (HepG2 NF-kB-Luc reporter cells, IL-1β stimulated); format: cell-based, human; settings: for IC50: Homo sapiens
Procedure: HepG2 NF-kB-Luc reporter cells stimulated with IL-1β (20 ng/ml) and the relative NF-kB luciferase activity (RLU) was determined for each of celastrol (compound 1) and each of the exemplary derivative compounds at the following eight point concentrations: 10 μM, 5 μM, 2.5 μM, 1.25 μM, 0.63 μM, 0.31 μM, 0.16 μM, 0.016 μM, and 0 μM). Assay values were plotted (not shown) and IC50 inhibitory concentrations were calculated after normalization using Prizm 9.0 software.
This example illustrates a study of the anti-inflammatory potential of an exemplary celastrol derivative of the present disclosure (compound 22) using an NF-κB luciferase promoter reporter gene assay in the human liver cancer cell line, HepG2.
NF-kB luciferase reporter assay: The celastrol derivative, compound 22 (prepared as described in Example 13) and the parent molecule, compound 1 (celastrol), were freshly dissolved in DMSO. HepG2 NF-κB reporter cells were seeded (2.5×10^4/well) in 96-well plate and then pre-treated with either compound 22 or compound 1 at the 8-point concentrations of 10, 5, 2.5, 1.25, 0.63, 0.31, 0.16, 0.016, or 0 μM, respectively, and the NF-κB promoter was activated by adding IL-1β (20 ng/ml) to the cells. After 18 hours, the cells were harvested by adding the 1× passive cell lysis buffer (Promega) and followed by measurement of the relative NF-kB luciferase activity (RLU) using GloMax discover microplate reader (Promega). Inhibitory concentrations (IC50) after normalization using Prizm 9.0 software.

## CC1=C(O)C(=O)C=C2C1=CC=C1[C@@]2(C)CC[C@@]2(C)[C@@H]3C[C@](C)(N(C)C(=O)C(=O)N(C)C)CC[C@]3(C)CC[C@]12C [Compound 22, N′-[(2R,4aS,6aR,6aS,14aS,14bR)-10-hydroxy-2,4a,6a,6a,9,14a-hexamethyl-11-oxo-1,3,4,5,6,13,14,14b-octahydropicen-2-yl]-N,N,N′-trimethyl-oxamide]
[1]; BMDCs, 50, 100, 500 nM, LPS then ATP or Nigericin, FIG. 2A
  ASC complex formation: suppressed ASC complex formation more strongly than compound 1
[1]; BMDCs, compared with compound 1
  NLRP3 inflammasome activity: robust inhibitory function on NLRP3 inflammasome activity that was better than that observed for the parental molecule celastrol (compound 1)
[2]
  ASC complex formation: strongly inhibited this ASC complex formation with an inhibitory capacity that was stronger than that observed for celastrol (compound 1) and MCC950
[3]
  expression of LPS-induced NF-kB target proteins iNOS, COX2, NLRP3, and IL-1β: markedly inhibited expression of the LPS-induced NF-kB target proteins iNOS, COX2, NLRP3, and IL-1β in a dose-dependent fashion
[4]; LPS (100 ng/ml) + Nigericin (10 μM), 0-10 μM, read-out: IC50 for inhibition of IL-1β secretion
  IC50: 0.159 µM
[4]; LPS + Nigericin
  inhibition of IL-1β secretion: robustly inhibited IL-1β secretion
[5]; HepG2, IL-1β (20 ng/ml), 18 hours, normalized, Example 14, FIG. 1B, read-out: IC50 for NF-κB promoter activity
  IC50: 0.268 µM
[5]; HepG2 NF-kB-Luc reporter cells, IL-1β (20 ng/ml), Example 13, read-out: NF-kB IC50
  IC50: 0.268 µM
[5]; IL-1β-induced, HepG2, FIG. 1
  inhibition of NF-kB inflammatory signaling: robust inhibitory potential for IL-1β-induced NF-kB inflammatory signaling pathway superior to celastrol (compound 1) at low concentrations; also recorded: robustly inhibits NF-κB inflammatory signaling
[5]; relative to celastrol (compound 1)
  % IC50 relative to Celastrol: 51%
[5]; vs compound 1 (IC50=528 nM), Example 14
  IC50 lower than that of compound 1 by: 50%
